Measurements taken from PubChem BioAssay AID248 (DTP/NCI, 2004).
Values joined by “and” are separate entries in the source; they are usually repeats but may differ in a detail not shown here. Equal values may be shown once. Toxic doses and inconclusive results are not listed. Cut-off read from the data, not from the text of the source: active = T/C of 150% or more; inactive = T/C below 125%.

Test system: L1210 leukemia ip in BDF1 mice, survival T/C
Experiment: NCI In Vivo Anticancer Drug Screen. Data for tumor model L1210 Leukemia (intraperitoneal) in B6D2F1 (BDF1) mice
Details: endpoint: mean survival time, higher = longer survival
How it was run: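 In this screen, tumor-bearing mice given compound are compared to those given vehicle, and their survival values are reported as a treated-to-control quotient.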

[1] = dose: 100.0 mg/kg/injection, schedule: Q01DX009 (ip), vehicle: saline
[2] = dose: 100.0 mg/kg/injection, schedule: Q04DX003 (ip), vehicle: saline
[3] = dose: 200.0 mg/kg/injection, schedule: Q04DX003 (ip), vehicle: saline
[4] = dose: 400.0 mg/kg/injection, schedule: Q04DX003 (ip), vehicle: saline
[5] = dose: 100.0 mg/kg/injection, schedule: Q04DX003 (ip), vehicle: saline with Tween-80
[6] = dose: 200.0 mg/kg/injection, schedule: Q04DX003 (ip), vehicle: saline with Tween-80
[7] = dose: 400.0 mg/kg/injection, schedule: Q04DX003 (ip), vehicle: saline with Tween-80
[8] = dose: 100.0 mg/kg/injection, schedule: Q01DX009 (ip), vehicle: Klucel (hydroxypropylcellulose) (HPC)
[9] = dose: 200.0 mg/kg/injection, schedule: Q01DX009 (ip), vehicle: Klucel (hydroxypropylcellulose) (HPC)
[10] = dose: 100.0 mg/kg/injection, schedule: Q04DX002 (ip), vehicle: Klucel (hydroxypropylcellulose) (HPC)
[11] = dose: 100.0 mg/kg/injection, schedule: Q04DX003 (ip), vehicle: Klucel (hydroxypropylcellulose) (HPC)
[12] = dose: 200.0 mg/kg/injection, schedule: Q04DX002 (ip), vehicle: Klucel (hydroxypropylcellulose) (HPC)
[13] = dose: 200.0 mg/kg/injection, schedule: Q04DX003 (ip), vehicle: Klucel (hydroxypropylcellulose) (HPC)
[14] = dose: 400.0 mg/kg/injection, schedule: Q04DX003 (ip), vehicle: Klucel (hydroxypropylcellulose) (HPC)
[15] = dose: 25.0 mg/kg/injection, schedule: Q01DX009 (ip), vehicle: saline
[16] = dose: 50.0 mg/kg/injection, schedule: Q01DX009 (ip), vehicle: saline
[17] = dose: 200.0 mg/kg/injection, schedule: Q01DX009 (ip), vehicle: saline
[18] = dose: 100.0 mg/kg/injection, schedule: Q01DX001 (ip), vehicle: carboxymethylcellulose (CMC)
[19] = dose: 200.0 mg/kg/injection, schedule: Q01DX001 (ip), vehicle: carboxymethylcellulose (CMC)

Measured: T/C

C=C(C)C1CC=C(C)CC1 (centres undefined)
inactive: dose: 100.0 mg/kg/injection, schedule: Q01DX001 (ip), vehicle: saline 111 % of control | [1] 91 % of control | [2] 110 % of control | dose: 200.0 mg/kg/injection, schedule: Q01DX001 (ip), vehicle: saline 105 % of control | [3] 97 % of control | dose: 400.0 mg/kg/injection, schedule: Q01DX001 (ip), vehicle: saline 111 % of control | [4] 97 % of control

CNC(=O)OCC1=CC(=O)C=CC1=O
inactive: dose: 6.25 mg/kg/injection, schedule: Q04DX003 (ip), vehicle: Klucel (hydroxypropylcellulose) (HPC) 92 % of control | dose: 12.5 mg/kg/injection, schedule: Q01DX001 (ip), vehicle: Klucel (hydroxypropylcellulose) (HPC) 93 % of control | dose: 12.5 mg/kg/injection, schedule: Q04DX003 (ip), vehicle: Klucel (hydroxypropylcellulose) (HPC) 94 % of control | dose: 25.0 mg/kg/injection, schedule: Q01DX001 (ip), vehicle: Klucel (hydroxypropylcellulose) (HPC) 96 % of control

S=C(S)NCCNC(=S)S
inactive: [5] 93 % of control | [2] 95 % of control | [6] 90 % of control | [3] 97 % of control | [7] 87 % of control | [4] 101 % of control

CC(C)(C)NC(=O)Oc1cccnc1
inactive: [8] 93 % of control | [9] 102 % of control

CCCCCCCCCCP(=O)(CCCC)CCCC
inactive: dose: 1.56 mg/kg/injection, schedule: Q01DX009 (ip), vehicle: Klucel (hydroxypropylcellulose) (HPC) 92 % of control | dose: 3.12 mg/kg/injection, schedule: Q01DX009 (ip), vehicle: Klucel (hydroxypropylcellulose) (HPC) 95 % of control | dose: 6.25 mg/kg/injection, schedule: Q01DX009 (ip), vehicle: Klucel (hydroxypropylcellulose) (HPC) 97 % of control | dose: 12.5 mg/kg/injection, schedule: Q01DX009 (ip), vehicle: Klucel (hydroxypropylcellulose) (HPC) 95 % of control | [8] 100 % of control

CC(=O)Nc1ccc(OC(=O)Nc2cc(C)ccc2C)cc1
inactive: dose: 25.0 mg/kg/injection, schedule: Q01DX009 (ip), vehicle: Klucel (hydroxypropylcellulose) (HPC) 109 % of control | dose: 50.0 mg/kg/injection, schedule: Q01DX009 (ip), vehicle: Klucel (hydroxypropylcellulose) (HPC) 88 % of control | [8] 94 % of control | [10] 102 % of control | [11] 95 % of control | [9] 89 % of control | [12] 97 % of control | [13] 97 % of control | dose: 400.0 mg/kg/injection, schedule: Q04DX002 (ip), vehicle: Klucel (hydroxypropylcellulose) (HPC) 100 % of control | [14] 93 % of control

CC(=O)NS(=O)(=O)CCCC[n+]1c(C)oc2ccc(-c3ccccc3)cc21
inactive: dose: 100.0 mg/kg/injection, schedule: Q04DX003 (sc), vehicle: olive oil, sesame oil, peanut oil 98 % of control | dose: 200.0 mg/kg/injection, schedule: Q04DX003 (sc), vehicle: olive oil, sesame oil, peanut oil 100 % of control | dose: 400.0 mg/kg/injection, schedule: Q04DX003 (sc), vehicle: olive oil, sesame oil, peanut oil 100 % of control

c1ccc(-c2sc(-c3ccccc3)c(-c3ccccc3)c2-c2ccccc2)cc1
inactive: [11] 93 % of control | [13] 95 % of control | [14] 95 % of control

C[n+]1ccccc1/C=N/O
inactive: [15] 105 % of control | dose: 33.0 mg/kg/injection, schedule: Q01DX009 (ip), vehicle: saline 100 % of control | [16] 98 % of control | dose: 75.0 mg/kg/injection, schedule: Q01DX009 (ip), vehicle: Klucel (hydroxypropylcellulose) (HPC) 102 % of control | dose: 75.0 mg/kg/injection, schedule: Q01DX009 (ip), vehicle: saline 98 % of control | dose: 75.0 mg/kg/injection, schedule: Q04DX003 (ip), vehicle: saline 91 % of control | [1] 100 % of control and 103 % of control | [2] 103 % of control | dose: 150.0 mg/kg/injection, schedule: Q01DX009 (ip), vehicle: Klucel (hydroxypropylcellulose) (HPC) 108 % of control | dose: 150.0 mg/kg/injection, schedule: Q04DX003 (ip), vehicle: saline 109 % of control | [17] 97 % of control | [3] 94 % of control | dose: 300.0 mg/kg/injection, schedule: Q04DX003 (ip), vehicle: saline 98 % of control

O=C(O)C1CC(Br)C(Br)CC1C(=O)Nc1ccc(Cl)c(Cl)c1 (centres undefined)
inactive: [10] 115 % of control | [12] 121 % of control

CCCCN(CCCC)CCNc1ccc(C)c2sc3ccccc3c(=O)c12
inactive: dose: 40.0 mg/kg/injection, schedule: Q01DX Z (ip), vehicle: carboxymethylcellulose (CMC) 104 % of control | dose: 600.0 mg/kg/injection, schedule: Q01DX Z (ip), vehicle: carboxymethylcellulose (CMC) 95 % of control

CN(C)c1ncnc2c1cnn2C
inactive: [18] 96 % of control | [19] 110 % of control

Cn1ncc(C(N)=O)c1N
inactive: [1] 100 % of control | dose: 100.0 mg/kg/injection, schedule: Q04DX002 (ip), vehicle: saline 87 % of control | [17] 103 % of control | dose: 200.0 mg/kg/injection, schedule: Q04DX002 (ip), vehicle: saline 87 % of control | dose: 400.0 mg/kg/injection, schedule: Q01DX009 (ip), vehicle: saline 96 % of control | dose: 400.0 mg/kg/injection, schedule: Q04DX002 (ip), vehicle: saline 90 % of control

CN(C)CCCN=C1Nc2ccccc2C(=NCCCN(C)C)Nc2ccccc21
inactive: dose: 12.5 mg/kg/injection, schedule: Q01DX009 (ip), vehicle: saline 97 % of control | dose: 12.5 mg/kg/injection, schedule: Q04DX003 (ip), vehicle: saline 102 % of control | [15] 97 % of control | dose: 25.0 mg/kg/injection, schedule: Q04DX003 (ip), vehicle: saline 98 % of control | [16] 94 % of control | dose: 50.0 mg/kg/injection, schedule: Q04DX003 (ip), vehicle: saline 104 % of control

O=C(Oc1c(Cl)cc(Cl)cc1Cl)c1ccccc1
inactive: [8] 93 % of control | dose: 100.0 mg/kg/injection, schedule: Q01DX009 (ip), vehicle: saline with Tween-80 90 % of control | [11] 93 % of control | [5] 98 % of control | [9] 96 % of control | dose: 200.0 mg/kg/injection, schedule: Q01DX009 (ip), vehicle: saline with Tween-80 91 % of control | [13] 96 % of control | [6] 98 % of control | dose: 400.0 mg/kg/injection, schedule: Q01DX009 (ip), vehicle: Klucel (hydroxypropylcellulose) (HPC) 98 % of control | dose: 400.0 mg/kg/injection, schedule: Q01DX009 (ip), vehicle: saline with Tween-80 106 % of control | [14] 98 % of control | [7] 96 % of control

O=C(Nc1ccccc1)Nn1cnc2ccccc2c1=O
inactive: [5] 89 % of control | [6] 90 % of control | [7] 88 % of control

N#CC1(c2ccccc2)CCCCC1
inactive: [18] 96 % of control | [19] 89 % of control | dose: 400.0 mg/kg/injection, schedule: Q01DX001 (ip), vehicle: carboxymethylcellulose (CMC) 94 % of control
